Laboratory results: patent US7833967B2, “Synthetic antimicrobial polypeptides” (priority 2003, dated 2010)

These substances were tested on E. coli TOP10 (assay: Suicide expression system (SES) growth inhibition). Details: Table 5; mixed-motif library, re-tested in the Bioscreen C.
Format: cell-based
“226 (RRRPPRLPRPFPIRPPPRVPRPIPVRP; Synthetic antimicrobial peptide) [compound 226]” was tested, and the “Growth inhibition (%)” value was 94%.
For “227 (RRRPPRLPRPFPIRPPPRVPRPVPIRP; Synthetic antimicrobial peptide) [compound 227]”, the “Growth inhibition (%)” value was 94%.
For “228 (RRRPPRLPRPFPLRPPPRFPRPFPIRP; Synthetic antimicrobial peptide) [compound 228]”, the “Growth inhibition (%)” value was 96%.
For “229 (RRRPPRLPRPFPLRPPPRFPRPFPLRP; Synthetic antimicrobial peptide) [compound 229]”, the “Growth inhibition (%)” value was 95%.
For “230 (RRRPPRLPRPFPLRPPPRFPRPLPLRP; Synthetic antimicrobial peptide) [compound 230]”, the “Growth inhibition (%)” value was 94%.
With “231 (RRRPPRLPRPFPLRPPPRLPRPFPFRP; Synthetic antimicrobial peptide) [compound 231]” the “Growth inhibition (%)” value was 98%.
In the case of “232 (RRRPPRLPRPFPLRPPPRLPRPIPVRP; Synthetic antimicrobial peptide) [compound 232]”, the “Growth inhibition (%)” value was 92%.
For “233 (RRRPPRLPRPFPLRPPPRLPRPLPVRP; Synthetic antimicrobial peptide) [compound 233]”, the “Growth inhibition (%)” value was 91%.
For “234 (RRRPPRLPRPFPLRPPPRVPRPLPIRP; Synthetic antimicrobial peptide) [compound 234]”, the “Growth inhibition (%)” value was 93%.
“235 (RRRPPRLPRPFPLRPPPRVPRPVPFRP; Synthetic antimicrobial peptide) [compound 235]” was tested, and the “Growth inhibition (%)” value was 94%.
“236 (RRRPPRLPRPFPLRPPPRVPRPVPFRP; Synthetic antimicrobial peptide) [compound 236]” was tested, and the “Growth inhibition (%)” value was 91%.
In the case of “237 (RRRPPRLPRPFPLRPPPRVPRPVPVRP; Synthetic antimicrobial peptide) [compound 237]”, the “Growth inhibition (%)” value was 96%.
“238 (RRRPPRLPRPFPVRPPPRFPRPFPIRP; Synthetic antimicrobial peptide) [compound 238]” was tested, and the “Growth inhibition (%)” value was 95%.
“239 (RRRPPRLPRPFPVRPPPRFPRPFPLRP; Synthetic antimicrobial peptide) [compound 239]” was tested, and the “Growth inhibition (%)” value was 99%.
For “240 (RRRPPRLPRPFPVRPPPRFPRPVPFRP; Synthetic antimicrobial peptide) [compound 240]”, the “Growth inhibition (%)” value was 91%.
“241 (RRRPPRLPRPFPVRPPPRIPRPIPFRP; Synthetic antimicrobial peptide) [compound 241]” was tested, and the “Growth inhibition (%)” value was 96%.
In the case of “242 (RRRPPRLPRPFPVRPPPRLPRPVPFRP; Synthetic antimicrobial peptide) [compound 242]”, the “Growth inhibition (%)” value was 90%.
In the case of “243 (RRRPPRLPRPFPVRPPPRLPRPVPFRP; Synthetic antimicrobial peptide) [compound 243]”, the “Growth inhibition (%)” value was 91%.
In the case of “244 (RRRPPRLPRPFPVRPPPRLPRPVPFRP; Synthetic antimicrobial peptide) [compound 244]”, the “Growth inhibition (%)” value was 90%.
In the case of “245 (RRRPPRLPRPFPVRPPPRVPRPFPVRP; Synthetic antimicrobial peptide) [compound 245]”, the “Growth inhibition (%)” value was 95%.
With “246 (RRRPPRLPRPFPVRPPPRVPRPFPVRP; Synthetic antimicrobial peptide) [compound 246]” the “Growth inhibition (%)” value was 95%.
For “247 (RRRPPRLPRPFPVRPPPRVPRPLPFRP; Synthetic antimicrobial peptide) [compound 247]”, the “Growth inhibition (%)” value was 93%.
In the case of “248 (RRRPPRLPRPFPVRPPPRVPRPVPIRP; Synthetic antimicrobial peptide) [compound 248]”, the “Growth inhibition (%)” value was 94%.
In the case of “249 (RRRPPRLPRPFPVRPPPRVPRPVPIRP; Synthetic antimicrobial peptide) [compound 249]”, the “Growth inhibition (%)” value was 93%.
